Read-outs that look alike come from different tables or passages of the source.
Assays:
[1] = system: HCT-116 human colorectal carcinoma cells; assay: Cell-proliferation assay using Alamar Blue dye; format: cell-based; details: Homo sapiens;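 also: cells exposed to compound for about 4 days, then Alamar Blue added and dye fluorescence read after about 4 h, compared with medium-only control wells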
recombinant human PIM1 = recombinant human PIM1 (Homo sapiens (Human), UniProt P11309); assay: PIM-1 kinase activity in cell-free in vitro assay; format: biochemical; details: for inhibition at 0.5 µM: 500 nM compound, read-out: PIM-1: % inh 500 nM
K-562 [2] = assay: Cell proliferation modulatory activity, K-562; format: cell-based; details: Homo sapiens, K562
MV-4-11 [3] = assay: Cell proliferation modulatory activity, MV-4-11; format: cell-based; details: Homo sapiens, MV4-11
K-562 [4] = assay: Cell proliferation modulatory activity, K-562; format: cell-based; details: Homo sapiens, K562; Table 45; read-out: K-562 IC50
MDAMB231 = MDAMB231 IC50; format: cell-based; details: Homo sapiens, MDA-MB-231; Table 45
PIM2 = PIM2 (Homo sapiens (Human), UniProt Q9P1W9); assay: PIM2 IC50; format: biochemical; details: Table 45
Flt3 = Flt3 (Homo sapiens (Human), UniProt P36888); assay: FLT-3 kinase activity in cell free in vitro assay; format: biochemical; details: cell-free; read-out: FLT-3
MV-4-11 [5] = assay: Cell proliferation modulatory activity, MV-4-11; format: cell-based; details: Homo sapiens, MV4-11; Table 45; read-out: MV-4-11 IC50
[6] = system: MiaPaca human pancreatic carcinoma cells; assay: Cell-proliferation assay using Alamar Blue dye; format: cell-based; details: MIA PaCa-2, Table 45
Protocol: A representative cell-proliferation assay protocol using Alamar Blue dye (stored at 4° C., use 20 ul per well) is described hereafter.
• a. Split and trypsinize cells. • b. Count cells using hemocytometer. • c. Plate 4,000-5,000 cells per well in 100 μl of medium and seed into a 96-well plate according to the following plate layout. Add cell culture medium only to wells B10 to B12. Wells B1 to B9 have cells but no compound added.
• d. Add 100 μl of 2× drug dilution to each well in a concentration shown in the plate layout above. At the same time, add 100 μl of media into the control wells (wells B10 to B12). Total volume is 200 μl/well. • e. Incubate four (4) days at 37° C., 5% CO2 in a humidified incubator. • f. Add 20 μl Alamar Blue reagent to each well. • g. Incubate for four (4) hours at 37° C., 5% CO2 in a humidified incubator. • h. Record fluorescence at an excitation wavelength of 544 nm and emission wavelength of 590 nm using a microplate reader.
In the assays, cells are cultured with a test compound for approximately four days, the dye then is added to the cells and fluorescence of […] dye is detected after approximately four hours. Different types of cells can be utilized in the assays (e.g., HCT-116 human colorectal carcinoma cells, PC-3 human prostatic cancer cells and MiaPaca human pancreatic carcinoma cells). Anti-proliferative effects of representative compounds are provided hereafter

phosphoBAD ser 112 = phosphoBAD ser 112 IC50; format: cell-based; details: read-out: phosphoBAD ser 112 IC50; Table 45
recombinant human CK2 = recombinant human CK2 (Homo sapiens (Human), UniProt P68400); assay: CK2 assay (cell-free, 33P-ATP filter plate); format: biochemical; details: 500 nM compound, cell-free; read-out: CK2: % inh 500 nM
[7] = HCT-116, read-out: HCT-116 (uM), cell proliferation modulatory activity, HCT-116, first column
[8] = HCT-116, read-out: HCT-116 (uM), cell proliferation modulatory activity, HCT-116, second column

Chain of PIM2 (Q9P1W9 whole entry): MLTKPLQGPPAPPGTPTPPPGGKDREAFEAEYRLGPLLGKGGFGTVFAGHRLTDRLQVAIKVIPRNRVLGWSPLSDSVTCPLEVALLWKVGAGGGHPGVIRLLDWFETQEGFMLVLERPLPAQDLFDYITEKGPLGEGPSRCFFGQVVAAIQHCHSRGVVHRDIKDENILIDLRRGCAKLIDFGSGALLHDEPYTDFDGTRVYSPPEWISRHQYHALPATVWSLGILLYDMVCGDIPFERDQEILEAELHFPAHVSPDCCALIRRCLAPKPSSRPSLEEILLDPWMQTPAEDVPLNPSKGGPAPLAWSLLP
Chain of recombinant human PIM1 (P11309 whole entry): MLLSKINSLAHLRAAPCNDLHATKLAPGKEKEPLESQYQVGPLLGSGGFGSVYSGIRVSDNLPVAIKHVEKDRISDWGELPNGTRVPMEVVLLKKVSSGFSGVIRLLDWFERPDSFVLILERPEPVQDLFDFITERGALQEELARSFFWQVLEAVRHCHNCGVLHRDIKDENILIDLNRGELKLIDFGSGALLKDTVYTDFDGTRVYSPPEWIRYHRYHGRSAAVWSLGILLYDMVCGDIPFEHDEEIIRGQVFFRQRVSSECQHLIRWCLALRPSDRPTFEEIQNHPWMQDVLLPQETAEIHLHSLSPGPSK
Chain of Flt3 (P36888 27-993): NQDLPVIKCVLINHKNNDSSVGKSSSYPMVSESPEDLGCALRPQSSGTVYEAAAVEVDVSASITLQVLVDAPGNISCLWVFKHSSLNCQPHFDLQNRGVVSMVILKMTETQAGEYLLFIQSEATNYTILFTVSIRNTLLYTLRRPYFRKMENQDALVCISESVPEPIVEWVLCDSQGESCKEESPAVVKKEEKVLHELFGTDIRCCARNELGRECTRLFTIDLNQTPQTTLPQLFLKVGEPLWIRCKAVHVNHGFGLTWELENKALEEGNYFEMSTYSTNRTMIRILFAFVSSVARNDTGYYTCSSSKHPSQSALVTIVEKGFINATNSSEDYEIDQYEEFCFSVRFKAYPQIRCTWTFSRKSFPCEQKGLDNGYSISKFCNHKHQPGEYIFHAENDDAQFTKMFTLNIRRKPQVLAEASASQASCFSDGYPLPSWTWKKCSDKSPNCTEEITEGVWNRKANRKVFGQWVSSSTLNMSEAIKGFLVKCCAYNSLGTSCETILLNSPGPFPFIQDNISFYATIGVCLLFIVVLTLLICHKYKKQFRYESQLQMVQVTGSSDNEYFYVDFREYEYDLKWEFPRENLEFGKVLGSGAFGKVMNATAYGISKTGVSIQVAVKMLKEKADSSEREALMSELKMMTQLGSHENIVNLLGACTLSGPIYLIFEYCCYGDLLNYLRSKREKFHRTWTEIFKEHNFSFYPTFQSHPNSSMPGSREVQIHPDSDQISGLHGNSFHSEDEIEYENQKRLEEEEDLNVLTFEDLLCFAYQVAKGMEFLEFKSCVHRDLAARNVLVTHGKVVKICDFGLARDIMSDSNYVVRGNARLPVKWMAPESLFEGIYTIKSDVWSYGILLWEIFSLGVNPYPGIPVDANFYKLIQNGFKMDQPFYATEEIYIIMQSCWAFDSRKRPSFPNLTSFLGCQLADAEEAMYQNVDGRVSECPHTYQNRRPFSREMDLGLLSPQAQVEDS
Chain of recombinant human CK2 (P68400 whole entry): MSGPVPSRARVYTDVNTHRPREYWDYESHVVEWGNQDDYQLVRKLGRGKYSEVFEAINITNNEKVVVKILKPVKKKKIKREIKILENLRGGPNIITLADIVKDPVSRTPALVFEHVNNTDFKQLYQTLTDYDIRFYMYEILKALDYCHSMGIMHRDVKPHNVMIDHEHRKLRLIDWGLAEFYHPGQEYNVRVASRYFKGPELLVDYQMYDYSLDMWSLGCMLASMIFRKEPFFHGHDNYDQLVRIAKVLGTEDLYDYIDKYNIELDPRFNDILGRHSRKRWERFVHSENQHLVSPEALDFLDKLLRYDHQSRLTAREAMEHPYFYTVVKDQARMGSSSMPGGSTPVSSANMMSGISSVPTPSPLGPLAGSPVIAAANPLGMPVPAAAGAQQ
Chain of recombinant human CK2 (P67870 whole entry partner): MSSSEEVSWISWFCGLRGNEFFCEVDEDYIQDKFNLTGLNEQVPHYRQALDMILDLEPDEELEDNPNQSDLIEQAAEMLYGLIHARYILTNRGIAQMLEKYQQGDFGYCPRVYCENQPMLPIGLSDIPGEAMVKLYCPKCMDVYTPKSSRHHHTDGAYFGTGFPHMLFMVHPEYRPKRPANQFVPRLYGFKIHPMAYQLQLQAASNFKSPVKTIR

| inhibition at 0.5 µM (recombinant human PIM1; cell-free) [%] | IC50 (recombinant human PIM1; cell-free) [nM] | IC50 (K-562 [2]) [µM] | IC50 (MV-4-11 [3]) [µM] | IC50 [1, 8] [µM] | Compound | further results |
| --- | --- | --- | --- | --- | --- | --- |
| 61.4 | 404 | > 10 | > 10 | – | CN(c1ccccc1)c1nc2cc(C(=O)O)ccc2c2sccc12 | IC50 [1, 7]: 10 µM |
| 82.8 | 159 | > 10 | > 10 | > 10 | CNS(=O)(=O)c1cccc(Nc2nc3cc(C(=O)O)ccc3c3sccc23)c1 | – |
| 67.2 | 244 | > 10 | > 10 | – | O=C(O)c1ccc2c(c1)nc(NCCN1CCCC1)c1ccsc12 | IC50 [1, 7]: 10 µM |
| – | – | – | – | – | Cc1ccc(F)cc1Nc1nc2c(-c3nnc[nH]3)cccc2c2cnccc12 | IC50 (K-562 [4]): > 10 µM; IC50 (MDAMB231): > 10 µM; IC50 (PIM2): < 100 nM |
| 92.4 | 58 | 9.15 | > 10 | – | N#Cc1cccc(Nc2nc3cc(C(=O)O)ccc3c3cnccc23)c1 | IC50 (Flt3): 12 nM |
| 90 | 299 | > 10 | 0.745 | > 10 | O=C(O)c1ccc2c(c1)nc(Nc1cc(F)cc(Cl)c1)c1ccsc12 | – |
| 85.7 | 239 | > 10 | 0.658 | 0.832 | O=C(O)c1ccc2c(c1)nc(Nc1ccc(F)c(F)c1)c1ccsc12 | – |
| – | – | – | – | – | Fc1ccc(Nc2nc3c(-c4nnc[nH]4)cccc3c3cnccc23)c(Cl)c1 | IC50 (MV-4-11 [5]): < 500 nM; IC50 (K-562 [4]): < 0.5 µM; IC50 [6]: > 10 µM; IC50 (PIM2): < 100 nM; IC50 (recombinant human PIM1; Table 45): < 100 nM; IC50 (phosphoBAD ser 112): < 500 nM |
| 80.8 | 257 | > 10 | 0.455 | – | O=C(O)c1ccc2c(c1)nc(Nc1ccc(F)c(Cl)c1)c1ccsc12 | IC50 [1, 7]: 10 µM |
| 76.6 | 138 | > 10 | 0.525 | – | Fc1cccc(Nc2nc3cc(-c4nnn[nH]4)ccc3c3sccc23)c1 | IC50 (Flt3): > 400 nM |
| 63.6 | 242 | > 10 | > 10 | – | CN(C)CCNc1nc2cc(C(=O)O)ccc2c2cnccc12 | – |
| – | – | – | – | – | N#Cc1cccc(Nc2nc3c(-c4nc[nH]n4)cccc3c3cnccc23)c1 | IC50 (MV-4-11 [5]): < 100 nM; IC50 (K-562 [4]): > 10 µM; IC50 [6]: > 10 µM; IC50 (PIM2): > 1100 nM; IC50 (recombinant human PIM1; Table 45): < 100 nM; IC50 (phosphoBAD ser 112): < 5000 nM |
| 92.9 | 47 | > 10 | > 10 | > 10 | CN(C)CCNc1nc2cc(-c3nnn[nH]3)ccc2c2sccc12 | IC50 [1, 7]: 10 µM |
| 74.3 | 174 | > 10 | 4.53 | – | Fc1ccc(Nc2nc3cc(-c4nnn[nH]4)ccc3c3sccc23)cc1 | IC50 [1, 7]: 10 µM |
| – | – | – | – | – | Fc1cccc(Nc2nc3c(-c4nnc[nH]4)cccc3c3cnccc23)c1 | IC50 (MV-4-11 [5]): < 500 nM; IC50 [6]: < 1 µM; IC50 (recombinant human PIM1; Table 45): < 100 nM; IC50 (phosphoBAD ser 112): < 500 nM |
| 92.4 | 111 | 3.26 | > 10 | 4.33 | O=C(O)c1ccc2c(c1)nc(Nc1cc(F)cc(F)c1)c1ccncc12 | – |
| 87.6 | 162 | > 10 | 0.609 | – | OCc1cccc(Nc2nc3cc(-c4nnn[nH]4)ccc3c3sccc23)c1 | – |
| 74 | 351 | – | > 10 | > 10 | O=C(O)c1ccc2c(c1)nc(NCCc1cccc(F)c1)c1ccncc12 [drawing 1560] | – |
| 7.83 | – | 0.217 | 0.161 | – | COC(=O)c1ccc2c(c1)nc(Nc1cccc(Cl)c1)c1ccncc12 | inhibition at 0.5 µM (recombinant human CK2): 13.4%; IC50 (Flt3): > 400 nM |
| – | – | – | – | – | COc1ccc(Nc2nc3c(-c4nc[nH]n4)cccc3c3cnccc23)cc1 | IC50 (MV-4-11 [5]): < 100 nM; IC50 (K-562 [4]): < 0.5 µM; IC50 [6]: < 0.5 µM; IC50 (PIM2): < 100 nM; IC50 (recombinant human PIM1; Table 45): < 100 nM; IC50 (phosphoBAD ser 112): < 100 nM |

Reference: patent publication US8168651B2, “Protein kinase modulators” (Cylene Pharmaceuticals, Inc., priority 2008, dated 2012)
